# Measurements from patent US10906904B2, “ADO-resistant cysteamine analogs and uses thereof” (HORIZON ORPHAN LLC, priority 2015, dated 2021).
# Read-outs that look alike come from different tables or passages of the source.
# Experiments:
# Cystine reactivity assay [1] = assay: Cystine reactivity assay; design: Cystine Reactivity: unit not given here; conditions: for Cystine Reactivity Assay (30° C.) (%) Mean Value: Table 4, percentage of 3 mM cysteamine; for Cystine Reactivity: Tables 1-3; for reactivity with cystine compared to cysteamine (in words): text summary of Tables 1-3
# In short: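 3 mM test compound incubated with 100 nM BODIPY FL L-cystine in phosphate buffer, pH 7.4, 30 °C; S–S cleavage relieves quenching, raising fluorescence. Rate taken as slope (RFU/min) of linear fit over time, expressed as percentage of 3 mM cysteamine.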
# human recombinant ADO = molecular target: T1, human recombinant ADO (Homo sapiens, UniProt Q96SZ5); format: in vitro ADME
# T1 sequence (Q96SZ5 1-270): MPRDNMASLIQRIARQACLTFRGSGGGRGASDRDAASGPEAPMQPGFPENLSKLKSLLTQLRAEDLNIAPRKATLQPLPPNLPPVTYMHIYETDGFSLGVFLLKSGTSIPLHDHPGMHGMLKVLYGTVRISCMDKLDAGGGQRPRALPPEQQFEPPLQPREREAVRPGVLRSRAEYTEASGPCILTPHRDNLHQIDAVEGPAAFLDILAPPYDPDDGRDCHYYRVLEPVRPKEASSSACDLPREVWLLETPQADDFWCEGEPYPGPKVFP
# In short: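 Test compound (15 mM) incubated with 60 μg/ml human recombinant ADO and 20 nM O2-sensitive fluorescent probe at 37 °C in sealed chamber. Initial rate of fluorescence increase (ex 380/em 650 nm) gave oxygen consumption, expressed relative to 15 mM cysteamine.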
# Cystine reactivity assay [2] = conditions: Table 4
# [3] = system: cystinotic human fibroblasts; assay: Cystine depletion assay; format: cell-based; conditions: for Emax: Homo sapiens, Fibroblast, 1 h, read-out: Cystine Depletion (%); for cystine depletion levels (in words): compared to cysteamine; for Cystine depletion: compound at 50 μM or 100 μM, Tables 1-3
# In short: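 Cystinotic human fibroblasts treated with compound at 50 μM or 100 μM for 60 min at 37° C. After homogenisation and acid protein precipitation, cystine measured by HILIC LC-MS/MS and normalised to protein. Depletion expressed as percent of that achieved by cysteamine at similar concentration.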
# [4] = Rodent pharmacokinetic assay (rat); format: in vivo; conditions: 2 and 10 mg free base equivalents per kg, intravenous and oral gavage
# Procedure: (§1) Pharmacokinetic parameters of a test compound in a rodent species (mouse and/or rat) were determined by administering a test compound at 2 and 10 mg free base equivalents per kg via the intravenous and oral gavage route to groups of three animals per route.
# (§2) Blood samples were taken at various times after administration, plasma prepared, and submitted to analysis for parent drug using a qualified LC-MS-MS assay. Pharmacokinetics parameters derived from the plasma analytical data were determined using non-compartmental analysis.
# in vitro = conditions: rat
# Procedure: (§3) Rat hepatocytes were used to model in vivo hepatic clearance of the compounds by the ADO enzyme. Briefly, a Hepatocyte Stability Assay was carried out using cryopreserved rat hepatocytes.
# [5] = Rodent pharmacokinetic assay (mouse); conditions: for half-life / bioavailability: plasma, 10 mg; for bioavailability: oral
# Procedure: as §1, §2
# [6] = system: cryopreserved rat hepatocytes; assay: Rat hepatocyte stability assay
# Procedure: as §3
# St-HdhQ^111/111 cells = assay: Glutamate-induced neuronal excitotoxicity assay; format: cell-based
# In short: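 Cells were pretreated with compound for 60 min at 33 °C in DMEM under 5% CO2, then exposed to 6 mM L-glutamate for 24 h. Viability was measured as ATP by CellTiter-Glo luminescence. Survival is expressed relative to 100 μM cysteamine, set as 100%.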
# [7] = Dimethyl sulfide (DMS) detection in rat whole blood following oral compound administration; format: in vivo
# Procedure: Male Sprague Dawley (SD) rats (200-250 g) were housed in cages under a 12 hour light/dark cycle with free access to food and water. Temperature and humidity were controlled according to UK Home Office regulations. For oral (po) administration, test compounds were formulated in water at a concentration of 30 mg/mL, to provide a dose of 150 mg/kg when administered orally in a 5 mL/kg dosing volume. Following compound or water (vehicle) administration to rats (n=15 per compound), terminal blood samples (>5 mL) were taken by cardiac puncture under CO2 at defined time-points post oral dosing (pre-dose, 0.25 hour, 0.5 hour, 1 hour and 2 hour). Blood was placed in sealed heparinized Eppendorf tubes on wet ice and stored at 4° C. prior to analyzing DMS levels by gas chromatography (GC).
# For each sample of rat blood, 1 mL was added to an evacuated 20 mL GC-Headspace vial containing tetrahydrofuran (THF) internal standard. Headspace vials were sealed with a crimp cap and septum (to prevent the vaporization of volatile sulfur compounds into the open air) and thoroughly vortex mixed. All samples were processed using gas chromatography to measure DMS levels. In short, sulfur containing compounds were thermally liberated into the gas carrier stream and injected (1 μL) into the gas chromatography column (30 m×0.32 mm DB-624 1.8 μm). Under these conditions, the retention time for dimethyl sulfide (DMS) and THF internal standard were approximately 1.83 minutes and 3.82 minutes respectively.
# For each analyzed blood sample, the ratio of DMS peak area to THF peak area was calculated. For the DMS calibration curve and assay linearity checks, this ratio was graphically plotted against the concentration of reference DMS standards (blank, 60 nM, 180 nM, 360 nM, 600 nM, 1200 nM, 1800 nM and 3000 nM). The concentration of DMS in each blood sample was calculated from the equation produced by this plot by linear regression analysis. […].
# in vivo = conditions: mouse, 10 mg
# Procedure: as §1, §2
# [8] = Table 4, relative to cystine depletion by cysteamine (100%) at a similar concentration
# [9] = relative to 15 mM cysteamine, Tables 1-3
# [10] = 2 and 10 mg free base equivalents per kg, intravenous and oral gavage
compound,measurement,setting,value
CN1CCC(S)CC1 [Compound 17521],Cystine Reactivity Assay (30° C.) (%) Mean Value,Cystine reactivity assay [1],50-90%
same,ADO Metabolism Assay (%) Mean Value,"human recombinant ADO; human, 15 mM",<25%
same,Cystine Reactivity Assay (RT) (RFU) Mean Value,Cystine reactivity assay [2],4000-9000 RFU
same,Emax,[3]; [8],79%
CN1CCC(S)CC1 [Compound 2d],Cystine Reactivity,Cystine reactivity assay [1],7332
same,reactivity with cystine compared to cysteamine (in words),Cystine reactivity assay [1],increased reactivity with cystine compared to cysteamine
same,metabolism by ADO compared to cysteamine (in words),human recombinant ADO,significantly reduced metabolism by ADO compared to cysteamine
same,ADO metabolism,"human recombinant ADO; human, 15 mM",1%
same,bioavailability,"[4]; plasma, read-out: Rat PK Bioavailability",34%
same,half-life,"[4]; plasma, read-out: Rat PK-Half life (converted)",138 min
same,microsomal CLint at 3 μM,in vitro; cryopreserved rat hepatocytes,12600 µL/min/mg
same,cystine depletion levels (in words),[3],slightly decreased
same,Cystine depletion,[3],79%
same,half-life,[5],234 min
same,bioavailability,[5],38%
NCCS [Cysteamine],Cystine Reactivity Assay (30° C.) (%) Mean Value,Cystine reactivity assay [1],>90%
same,Cystine Reactivity,Cystine reactivity assay [1],6543
same,ADO Metabolism Assay (%) Mean Value,"human recombinant ADO; Table 4, relative to 15 mM cysteamine",>75%
same,ADO metabolism,human recombinant ADO; [9],111%
same,Cystine Reactivity Assay (RT) (RFU) Mean Value,Cystine reactivity assay [2],4000-9000 RFU
same,Rat PK Bioavailability,[4],62%
same,Rat PK-Half life,[4],30 min
same,Rat Hepatocytes CLint,[6],33.7 mL/min/mg
same,Cystine Depletion (%),[3]; [8],100%
same,Cystine depletion,[3],101%
same,Cystine depletion ( ) = disulfide efficacy,"[3]; disulfide of the compound, 50 μM or 100 μM",(106%)
same,HdhQ^111/111 cell % survival (mean ± STD) Test Conc. 10 μM,"St-HdhQ^111/111 cells; 10 μM, 6 mM L-glutamate 24 hours, % of effect of 100 μM cysteamine",20 ± 6%
same,HdhQ^111/111 cell % survival (mean ± STD) Test Conc. 100 μM,"St-HdhQ^111/111 cells; 100 μM, 6 mM L-glutamate 24 hours, % of effect of 100 μM cysteamine",105 ± 13%
same,inhibition of glutamate-induced excitotoxicity / cell survival (in words),St-HdhQ^111/111 cells; St-HdhQ^111/111 cells,capable of inhibiting glutamate-induced excitotoxicity
same,"Mean DMS levels (nM) ± STD, Time 0.5 hr","[7]; rat whole blood, 150 mg/kg po, 0.5 hr",1097 ± 418 nM
same,"Mean DMS levels (nM) ± STD, Time 1 hr","[7]; rat whole blood, 150 mg/kg po, 1 hr",1162 ± 373 nM
same,"Mean DMS levels (nM) ± STD, Time 2 hr","[7]; rat whole blood, 150 mg/kg po, 2 hr",1437 ± 334 nM
same,"Mean DMS levels (nM) ± STD, Time […]","[7]; rat whole blood, 150 mg/kg po, […]",641 ± 324 nM
same,Mouse PK Bioavailability,[5]; [10],33%
same,Mouse PK-Half life,[5]; [10],2.4 h
CC(C)(S)CN [Compound 18782],ADO Metabolism Assay (%) Mean Value,"human recombinant ADO; human, 15 mM",<25%
same,Cystine Reactivity Assay (RT) (RFU) Mean Value,Cystine reactivity assay [2],<4000 RFU
same,Emax,[3]; [8],32%
same,"Mean DMS levels (nM) ± STD, Time 1 hr","[7]; male, Sprague Dawley, rat, in vivo, po, 150 mg/kg, 1 h",<60 nM
same,"Mean DMS levels (nM) ± STD, Time 2 hr","[7]; male, Sprague Dawley, rat, in vivo, po, 150 mg/kg, 2 h",<60 nM
CC(N)CS (stereo not drawn) [Compound 3c],Cystine Reactivity,Cystine reactivity assay [1],7733
same,reactivity with cystine compared to cysteamine (in words),Cystine reactivity assay [1],increased reactivity with cystine compared to cysteamine
same,metabolism by ADO compared to cysteamine (in words),human recombinant ADO,significantly reduced metabolism by ADO compared to cysteamine
same,Rat PK Bioavailability,[4],23%
same,Rat PK-Half life,[4],48 min
same,Rat Hepatocytes CLint,[6],29.5 mL/min/mg
same,cystine depletion levels (in words),[3],similar
same,Cystine depletion,[3],97%
SC1CCNCC1 [Compound 2c],metabolism by ADO compared to cysteamine (in words),human recombinant ADO,significantly reduced metabolism by ADO compared to cysteamine
same,ADO metabolism,"human recombinant ADO; human, 15 mM",2%
same,cystine depletion levels (in words),[3],slightly decreased
same,Cystine depletion,[3],73%
same,half-life,[5],426 min
same,bioavailability,[5],74%
SCCN1CCOCC1 [Compound 17328],ADO Metabolism Assay (%) Mean Value,"human recombinant ADO; human, 15 mM",<25%
same,Cystine Reactivity Assay (RT) (RFU) Mean Value,Cystine reactivity assay [2],<4000 RFU
same,Emax,[3]; [8],13%
SCCN1CCCC1 [Compound 2b],Cystine Reactivity,Cystine reactivity assay [1],12392
same,reactivity with cystine compared to cysteamine (in words),Cystine reactivity assay [1],increased reactivity with cystine compared to cysteamine
same,ADO metabolism,human recombinant ADO; [9],4%
same,metabolism by ADO compared to cysteamine (in words),human recombinant ADO; text summary of Tables 1-3,significantly reduced metabolism by ADO compared to cysteamine
same,microsomal CLint,in vitro; hepatocytes,15700 µL/min/mg
same,cystine depletion levels (in words),[3],similar
same,Cystine depletion,[3],99%
same,bioavailability,in vivo,33%
same,half-life,in vivo,24 min
SCCc1ccncc1 [Compound 17522],ADO Metabolism Assay (%) Mean Value,"human recombinant ADO; human, 15 mM",<25%
same,Cystine Reactivity Assay (RT) (RFU) Mean Value,Cystine reactivity assay [2],<4000 RFU
same,Emax,[3]; [8],6%
